Results on 20 molecules are retold here after EP3925956B1, “1H-INDAZOLE-3-CARBOXAMIDE DERIVATIVES AND RELATED COMPOUNDS AS FACTOR D INHIBITORS FOR TREATING DISEASES CHARACTERIZED BY ABERRANT COMPLEMENT SYSTEM ACTIVITY, SUCH AS E.G. IMMUNOLOGICAL DISORDERS” (BioCryst Pharmaceuticals, Inc., priority 2016, dated 2017).

The target in this experiment is Factor D (Homo sapiens, UniProt P00746). Nature of the experiment: Factor D esterolytic assay.
Factor D, sequence (P00746 26-253): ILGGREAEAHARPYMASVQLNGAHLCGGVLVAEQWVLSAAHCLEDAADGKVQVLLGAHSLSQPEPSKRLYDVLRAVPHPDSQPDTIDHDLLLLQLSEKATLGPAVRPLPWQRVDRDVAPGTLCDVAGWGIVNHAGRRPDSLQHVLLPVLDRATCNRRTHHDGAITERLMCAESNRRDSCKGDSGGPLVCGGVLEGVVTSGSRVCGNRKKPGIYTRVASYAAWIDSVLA
On to `NC(=O)c1nn(CC(=O)N(CC(=O)NCc2cccc(Cl)c2F)[C@H]2C[C@@H](N)C2)c2ccccc12` [153a, 1-(2-(((cis)-3-aminocyclobutyl)(2-((3-chloro-2-fluorobenzyl)amino)-2-oxoethyl)amino)-2-oxoethyl)-1H-indazole-3-carboxamide], for which the IC50 was < 1000 nM. With `CC(C)(C)OC(=O)N[C@H]1C[C@H](CN(CC(=O)NCc2cccc(Cl)c2F)C(=O)Cn2nc(C(N)=O)c3ccccc32)C1` [161b, tert-butyl ((trans)-3-((2-(3-carbamoyl-1H-indazol-1-yl)-N-(2-((3-chloro-2-fluorobenzyl)amino)-2-oxoethyl)acetamido)methyl)cyclobutyl)carbamate], the IC50 lay within 1000 to 10000 nM. The value for `NC(=O)c1nn(CC(=O)N(CC(=O)NCc2cccc(Cl)c2F)C[C@H]2C[C@H](N)C2)c2ccccc12` [161c, 1-(2-((((trans)-3-aminocyclobutyl)methyl)(2-((3-chloro-2-fluorobenzyl)amino)-2-oxoethyl)amino)-2-oxoethyl)-1H-indazole-3-carboxamide] was < 1000 nM; that for `NC(=O)c1nn(CC(=O)N(CC(=O)NCc2cccc(Cl)c2F)[C@H]2C[C@H](N)C2)c2ccccc12` [169c, 1-(2-(((trans)-3-aminocyclobutyl)(2-((3-chloro-2-fluorobenzyl)amino)-2-oxoethyl)amino)-2-oxoethyl)-1H-indazole-3-carboxamide] was < 1000 nM; that for `CO[C@H]1C[C@H](N(CC(=O)NCc2cccc(Cl)c2F)C(=O)Cn2nc(C(N)=O)c3ccccc32)C1` [170b, 1-(2-((2-((3-chloro-2-fluorobenzyl)amino)-2-oxoethyl)((trans)-3-methoxycyclobutyl)amino)-2-oxoethyl)-1H-indazole-3-carboxamide] was < 1000 nM. With `NC(=O)c1nn(CC(=O)N(CC(=O)NCc2cccc(Cl)c2F)C[C@H]2C[C@H](O)C2)c2ccccc12` [172b, 1-(2-((2-((3-chloro-2-fluorobenzyl)amino)-2-oxoethyl)(((trans)-3-hydroxycyclobutyl)methyl)amino)-2-oxoethyl)-1H-indazole-3-carboxamide], the IC50 was < 1000 nM. The value for `CC(=O)c1nn(CC(=O)N(CC(=O)NCc2cccc(Cl)c2F)[C@H]2C[C@H](O)C2)c2ccc(Nc3cncnc3)cc12` [182a, 2-(3-acetyl-5-(pyrimidin-5-ylamino)-1H-indazol-1-yl)-N-(2-((3-chloro-2-fluorobenzyl)amino)-2-oxoethyl)-N-(trans-3-hydroxycyclobutyl)acetamide] was < 1000 nM; that for `CC(=O)c1nn(CC(=O)N(CC(=O)NCc2cccc(Cl)c2F)[C@H]2C[C@H](O)C2)c2ccccc12` [183a, 2-(3-acetyl-1H-indazol-1-yl)-N-(2-((3-chloro-2-fluorobenzyl)amino)-2-oxoethyl)-N-(trans-3-hydroxycyclobutyl)acetamide] was < 1000 nM; that for `N#Cc1cn(CC(=O)N(CC(=O)NCc2cccc(Cl)c2F)C2CC2)c2ccc(C(=O)NCc3ccccc3)cc12` [200i, N-benzyl-1-(2-((2-((3-chloro-2-fluorobenzyl)amino)-2-oxoethyl)(cyclopropyl)amino)-2-oxoethyl)-3-cyano-1H-indole-5-carboxamide] was 1000 to 10000 nM. In the case of `NC(=O)c1nn(CC(=O)N(CC(=O)NCc2cccc(Cl)c2F)[C@H]2C[C@@H](CO)C2)c2ccccc12` [210b, 1-(2-((2-((3-chloro-2-fluorobenzyl)amino)-2-oxoethyl)((cis)-3-(hydroxymethyl)cyclobutyl)amino)-2-oxoethyl)-1H-indazole-3-carboxamide], the IC50 is < 1000 nM. `COC(=O)c1ccc2c(c1)c(C(C)=O)nn2CC(=O)N(CC(=O)NCc1cccc(Cl)c1F)C1CC1` [227a, methyl 3-acetyl-1-(2-((2-((3-chloro-2-fluorobenzyl)amino)-2-oxoethyl)(cyclopropyl)amino)-2-oxoethyl)-1H-indazole-5-carboxylate]: the IC50 was < 1000 nM. With `CC(O)c1nn(CC(=O)N(CC(=O)NCc2cccc(Cl)c2F)C2CC2)c2ccc(NC(=O)N3CCCC(F)(F)C3)cc12` (centres unmarked) [289a, N-(1-(2-((2-((3-chloro-2-fluorobenzyl)amino)-2-oxoethyl)(cyclopropyl)amino)-2-oxoethyl)-3-(1-hydroxyethyl)-1H-indazol-5-yl)-3,3-difluoropiperidine-1-carboxamide], the half-inhibitory concentration (IC50) lay within 1000 to 10000 nM. In the case of `CC(C)(C)CC(=O)Nc1ccc2c(C(N)=O)nn(CC(=O)N(CC(=O)NCc3cccc(Cl)c3F)C3CC3)c2c1` [322b, 1-(2-((2-((3-chloro-2-fluorobenzyl)amino)-2-oxoethyl)(cyclopropyl)amino)-2-oxoethyl)-6-(3,3-dimethylbutanamido)-1H-indazole-3-carboxamide], the IC50 is < 1000 nM. As for `NC(=O)c1nn(CC(=O)N(CC(=O)NCc2cccc(Cl)c2F)C2CC2)c2ncc(N)cc12` [326b, 5-amino-1-(2-((2-((3-chloro-2-fluorobenzyl)amino)-2-oxoethyl)(cyclopropyl)amino)-2-oxoethyl)-1H-pyrazolo[3,4-b]pyridine-3-carboxamide], the IC50 lay within 1000 to 10000 nM. `C[C@H](CO)N(CC(=O)NCc1cccc(Cl)c1F)C(=O)Cn1nc(C(N)=O)c2cc(NC(=O)OC(C)(C)C)ccc21` [345e, (R)-tert-butyl (3-carbamoyl-1-(2-((2-((3-chloro-2-fluorobenzyl)amino)-2-oxoethyl)(1-hydroxypropan-2-yl)amino)-2-oxoethyl)-1H-indazol-5-yl)carbamate]: the IC50 was < 1000 nM. The figure for `NC(=O)c1nn(CC(=O)N(CC(=O)NCc2cccc(Cl)c2F)[C@H]2C[C@H](N)C2)c2ccc([N+](=O)[O-])cc12` [347b, 1-(2-(((trans)-3-aminocyclobutyl)(2-((3-chloro-2-fluorobenzyl)amino)-2-oxoethyl)amino)-2-oxoethyl)-5-nitro-1H-indazole-3-carboxamide] is < 1000 nM; for `NC(=O)c1nn(CC(=O)N(CC(=O)Nc2cccc(Br)n2)[C@H]2C[C@H](N)C2)c2ccccc12` [349d, 1-(2-(((trans)-3-aminocyclobutyl)(2-((6-bromopyridin-2-yl)amino)-2-oxoethyl)amino)-2-oxoethyl)-1H-indazole-3-carboxamide] it is < 1000 nM; for `NC(=O)c1nn(CC(=O)N(CC(=O)Nc2cncc(Br)n2)[C@H]2C[C@H](N)C2)c2ccccc12` [350c, 1-(2-(((trans)-3-aminocyclobutyl)(2-((6-bromopyrazin-2-yl)amino)-2-oxoethyl)amino)-2-oxoethyl)-1H-indazole-3-carboxamide] it is < 1000 nM. Turning to `NC(=O)c1nn(CC(=O)N(CC(=O)NCc2cccc(Cl)c2F)[C@H]2C[C@H](N)C2)c2ccc(N)cc12` [351b, 5-amino-1-(2-(((trans)-3-aminocyclobutyl)(2-((3-chloro-2-fluorobenzyl)amino)-2-oxoethyl)amino)-2-oxoethyl)-1H-indazole-3-carboxamide], the IC50 was < 1000 nM. The molecule `CN(C)CC[C@H](N)c1cccc(Cl)c1F` [358f, (S)-1-(3-chloro-2-fluorophenyl)-N3,N3-dimethylpropane-1,3-diamine] came in with a half-inhibitory concentration (IC50) of 1000 to 10000 nM.

One may read the IC50 as the concentration at which inhibition is half-maximal. Read a low IC50 as greater potency in that assay.
